We go through seven compounds from ChEMBL document CHEMBL5154697, “Synthesis and anti-HIV activity of a new isoxazole containing disubstituted 1,2,4-oxadiazoles analogs” (Bioorg Med Chem, 2022).

Data set [1] has as its system Human immunodeficiency virus 1. As to the kind of experiment: Antiviral activity against HIV1 NL4.3 infected in human TZM-bl cells assessed as inhibition of viral infection at 100 nM measured after 48 hrs by steady-glo luciferase reporter gene assay relative to control. The data set is classed as functional. To be noted: Human immunodeficiency virus 1, NL4.3, TZM-bl.

The nature of data set [2]: Cytotoxicity against human TZM-bl cells harboring beta-galactosidase/luciferase reporter gene assessed as cell viability at 100 nM measured after 48 hrs by MTT assay relative to control. The data set is classed as toxicity, cell-based. The conditions noted are these: read-out: Activity.
Data set [3] is described as follows: Cytotoxicity against human CEM-GFP cells assessed as cell viability at 100 nM measured after 48 hrs by MTT assay relative to control. To be noted: read-out: Activity. It is filed as toxicity, cell-based.
For data set [4], the system named is Human immunodeficiency virus 1. Put plainly: Antiviral activity against HIV1 NL4.3 virus infected in human CEM-GFP cells assessed as reduction in p24 antigen level at 100 nM measured after 72 hrs by ELISA relative to control. The data set is classed as functional. The conditions noted are these: Human immunodeficiency virus 1, NL4.3, CEM-GFP.
Data set [5] deals with Human immunodeficiency virus type 1 protease (Human immunodeficiency virus 1) (UniProt Q72874). To be noted: dose 500.0 nM.
Description: Inhibition of HIV-1 protease at 500 nM using fluorophore-labelled peptide substrate by fluorescence assay relative to control
The nature of data set [6]: Cytotoxicity against human CEM-GFP cells assessed as reduction in cell viability measured after 48 hrs by MTT assay. The data set is classed as toxicity, cell-based.
Data set [7] is described as follows: Therapeutic index, ratio of CC50 for cytotoxicity against human CEM-GFP cells to IC50 for antiviral activity against HIV1 NL4.3 virus infected in human CEM-GFP cells assessed as reduction in p24 antigen level. It is filed as toxicity, cell-based. The conditions noted are these: read-out: TI.
In data set [8] the test system is Human immunodeficiency virus 1. As to the kind of experiment: Antiviral activity against HIV1 NL4.3 virus infected in human CEM-GFP cells assessed as reduction in p24 antigen level measured after 72 hrs by ELISA. To be noted: Human immunodeficiency virus 1, NL4.3, CEM-GFP. It is filed as functional, organism-based.
Data set [9] has as its target Human immunodeficiency virus type 1 integrase (Human immunodeficiency virus 1) (UniProt Q7ZJM1). As to the kind of experiment: Inhibition of full-length recombinant HIV1 integrase at 100 nM using target substrate DNA preincubated for 5 mins followed by substrate addition and measured after 30 mins by colorimetry relative to control. The conditions noted are these: time 35.0 min.

Data set [10] deals with Human immunodeficiency virus type 1 reverse transcriptase (Human immunodeficiency virus 1) (UniProt Q72547). Put plainly: Inhibition of HIV-1 reverse transcriptase RNA-dependent DNA polymerase activity assessed as reduction in biotin-dUTP incorporation at 100 nM using poly(A)/oligo (dT)15 as template/primer by ELISA relative to control.
Data set [11] concerns the target Human immunodeficiency virus type 1 protease (Human immunodeficiency virus 1) (UniProt Q72874). As to the kind of experiment: Inhibition of HIV-1 protease at 100 nM using fluorophore-labelled peptide substrate by fluorescence assay relative to control.

Sequence of Human immunodeficiency virus type 1 integrase (Human immunodeficiency virus 1) (Q7ZJM1 as listed by the source): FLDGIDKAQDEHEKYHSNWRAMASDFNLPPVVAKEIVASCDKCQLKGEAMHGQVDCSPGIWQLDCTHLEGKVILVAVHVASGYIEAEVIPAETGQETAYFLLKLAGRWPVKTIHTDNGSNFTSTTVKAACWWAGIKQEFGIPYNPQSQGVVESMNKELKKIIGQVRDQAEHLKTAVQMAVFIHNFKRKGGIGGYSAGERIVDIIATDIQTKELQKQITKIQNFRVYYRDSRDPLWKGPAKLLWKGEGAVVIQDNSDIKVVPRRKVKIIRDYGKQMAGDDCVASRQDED

Consider `Cc1ccc(-c2cc(Cc3noc(-c4cccc(C(F)(F)F)c4)n3)on2)cc1`, for which the inhibition at 0.1 µM is 65.4% in data set [1] and 50% in [4]. For the same compound, the viability at 48 h, 0.1 µM amounted to 82.1% in data set [2] and 86.7% in [3].
In the same order, the values of `COc1ccc(-c2cc(Cc3noc(-c4cccc(C(F)(F)F)c4)n3)on2)cc1` are 24.3%, 27%, 83% and 96.6%.
In the same order, the values of `FC(F)(F)c1cccc(-c2nc(Cc3cc(-c4cccs4)no3)no2)c1` are 27.5%, 17.5%, 88.2% and 88.3%.
Consider `FC(F)(F)c1cccc(-c2nc(Cc3cc(-c4ccccc4)no3)no2)c1`, for which the results for the inhibition at 0.1 µM in [1] and in [4] were 47.4% and 39.1%, respectively. Moreover, the viability at 48 h, 0.1 µM came to 84.7% in data set [2] and 95.9% in data set [3].
Turning to `CC(C)(C)NC(=O)[C@@H]1CN(Cc2cccnc2)CCN1C[C@@H](O)C[C@@H](Cc1ccccc1)C(=O)N[C@H]1c2ccccc2C[C@H]1O`, the inhibition in data set [5] worked out at 87%.
`CCNC(=O)c1noc(-c2cc(C(C)C)c(O)cc2O)c1-c1ccc(CN2CCOCC2)cc1` [LUMINESPIB]: in [6], the CC50 at 48 h worked out at 31.1 µM. For the same compound, the selectivity ratio in [7] is 470. Also, the inhibition at 0.1 µM in data set [1] is 88.9%; in [4], 82.5%. The values for the viability at 48 h, 0.1 µM in data set [2] and in [3] were 92.7% and 94.1%, respectively.
As for `FC(F)(F)c1cccc(-c2nc(Cc3cc(-c4ccc(Cl)cc4)no3)no2)c1`, the CC50 at 48 h in data set [6] was 13.3 µM. In addition, the IC50 in data set [8] is 0.0857 µM. Also, in [7], the selectivity ratio is 155. For the same compound, the inhibition came to 9.58% in [9], 5.44% in data set [10] and 6.66% in [11]. The inhibition at 0.1 µM in [1] is 82%; in [4] it was 66.8%. Besides, the figures for the viability at 48 h, 0.1 µM in [2] and in [3] were 84.4% and 85.1%, respectively.
